Earlier results on 28 compounds are cited in patent US9241912B2, “Agrochemical formulation comprising encapsulated pesticide” (priority 2011, dated 2016).

≈ marks a conversion by molar mass, not a printed value.

The conditions of the first data set: at 20° C.
On to `CC(C)C(=O)C(C)(C)C` [2,2,4-trimethyl-3-pentanone], for which the solubility in water is 5500 µg/mL (≈ 42.9 mM).

Turning to `CCCC(=O)C(C)(C)C` [2,2-dimethyl-3-hexanone], the solubility in water is 2800 µg/mL (≈ 21.8 mM).

For the compound `CCC(=O)C(C)(C)C` [2,2-dimethyl-3-pentanone], the solubility in water is 10400 µg/mL (≈ 91.1 mM).

As to `CCCCC(=O)C(C)C` [2-methyl-3-heptanone], the solubility in water is 1400 µg/mL (≈ 10.9 mM).

For `CCCC(=O)C(C)C` [2-methyl-3-hexanone], the solubility in water was 6300 µg/mL (≈ 55.2 mM).

Regarding `CCCC(=O)CC(C)C` [2-methyl-4-heptanone], the solubility in water is 1700 µg/mL (≈ 13.3 mM).

In the case of `CCCC(C)(C)C(C)=O` [3,3-dimethyl-2-hexanone], the solubility in water is 2700 µg/mL (≈ 21.1 mM).

In the case of `CCC(C)(C)C(C)=O` [3,3-dimethyl-2-pentanone], the solubility in water is 7300 µg/mL (≈ 63.9 mM).

For `CCC(C)C(C)C(C)=O` (stereo not shown) [3,4-dimethyl-2-hexanone], the solubility in water was 1400 µg/mL (≈ 10.9 mM).

On to `CC(=O)C(C)C(C)C` (stereo not shown) [3,4-dimethyl-2-pentanone], for which the solubility in water was 6700 µg/mL (≈ 58.7 mM).

`CCC(CC)C(C)=O` [3-ethyl-2-pentanone]: the solubility in water is 4600 µg/mL (≈ 40.3 mM).

Turning to `CCC(C)(CC)C(C)=O` [3-ethyl-3-methyl-2-pentanone], the solubility in water is 1800 µg/mL (≈ 14 mM).

For `CCC(C(C)=O)C(C)C` (stereo not shown) [3-ethyl-4-methyl-2-pentanone], the solubility in water was 1700 µg/mL (≈ 13.3 mM).

Take `CCCCC(C)C(C)=O` (stereo not shown) [3-methyl-2-heptanone]: the solubility in water was 900 µg/mL (≈ 7.02 mM).

Take `CCCC(C)C(C)=O` (stereo not shown) [3-methyl-2-hexanone]: the solubility in water was 4100 µg/mL (≈ 35.9 mM).

With `CCCC(=O)C(C)CC` (stereo not shown) [3-methyl-4-heptanone], the solubility in water was 1900 µg/mL (≈ 14.8 mM).

Regarding `CC(=O)CC(C)(C)C` [4,4-dimethyl-2-pentanone], the solubility in water was 10400 µg/mL (≈ 91.1 mM).

Regarding `CCC(=O)C(C)(C)CC` [4,4-dimethyl-3-hexanone], the solubility in water is 2500 µg/mL (≈ 19.5 mM).

As for `CCC(C)CC(C)=O` (stereo not shown) [4-methyl-2-hexanone], the solubility in water was 4300 µg/mL (≈ 37.7 mM).

On to `CCC(=O)C(C)CC` (stereo not shown) [4-methyl-3-hexanone], for which the solubility in water is 5200 µg/mL (≈ 45.5 mM).

In the case of `CCC(C)CCC(C)=O` (stereo not shown) [5-methyl-2-heptanone], the solubility in water was 1000 µg/mL (≈ 7.8 mM).

`CCC(=O)CC(C)C` [5-methyl-3-hexanone]: the solubility in water is 5200 µg/mL (≈ 45.5 mM).

Regarding `CC(=O)CCCC(C)C` [6-methyl-2-heptanone], the solubility in water is 800 µg/mL (≈ 6.24 mM).

For `CCC(=O)CCC(C)C` [6-methyl-3-heptanone], the solubility in water was 900 µg/mL (≈ 7.02 mM).

`CCCCC(C)=O` [Example 2-hexanone, 2-hexanone]: the solubility in water is 14000 µg/mL (≈ 140 mM).

`CCCCC(=O)CCC` [Example 4-octanone, 4-octanone]: the solubility in water was 1000 µg/mL (≈ 7.8 mM).

Take `CC1=CC(=O)CC(C)(C)C1` [isoporone]: the solubility in water is 15000 µg/mL (≈ 109 mM).

The same data set, now with this note: not suitable as solvent B.
Take `CC(C)=O` [acetone]: the “solubility in water (in words)” value was “completely miscible with water”.
